The numbers were not newly measured in US9579280B2, “Controlled release delivery system for nasal applications and method of treatment” (MATTERN PHARMA AG, priority 2003, dated 2017), which cites them from elsewhere.

Series [1] deals with T1, sex hormone binding globulin (SHBG) (Homo sapiens, UniProt P04278).
T1 sequence (P04278 30-402): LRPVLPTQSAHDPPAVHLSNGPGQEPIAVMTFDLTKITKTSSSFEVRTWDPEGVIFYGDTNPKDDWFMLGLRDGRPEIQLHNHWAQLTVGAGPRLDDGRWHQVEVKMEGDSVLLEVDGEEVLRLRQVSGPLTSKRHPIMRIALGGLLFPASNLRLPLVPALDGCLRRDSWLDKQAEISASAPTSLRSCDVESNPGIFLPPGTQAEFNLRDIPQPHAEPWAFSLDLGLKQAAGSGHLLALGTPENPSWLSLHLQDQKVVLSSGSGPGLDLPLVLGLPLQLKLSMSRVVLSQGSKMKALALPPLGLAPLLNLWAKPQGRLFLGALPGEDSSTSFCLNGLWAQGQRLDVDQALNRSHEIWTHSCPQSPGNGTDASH

For series [2] the following is noted: relative to water.
For series [3] the following is noted: nasal.
The test system of the next series is female sexual response. The conditions noted are these: for sexual arousal: sublingual or single vaginal dose.

Where two headings read alike, the source gives them in different places.

As to `C[C@]12CC[C@H]3[C@@H](CCC4=CC(=O)CC[C@@]43C)[C@@H]1CC[C@@H]2O` [Testosterone, testosterone], the “fraction of circulating plasma testosterone bound to SHBG” value in series [1] is listed as “Approximately 40%”. In addition, the “unbound (free) fraction” value was 2% in series [1] (in men) and “up to 3%” in series [1] (in women). Also, the “solubility in vegetable oil” value in series [2] is recorded as “somewhat more soluble in vegetable oil”.
`CN(C)CC(=O)O[C@H]1CC[C@H]2[C@@H]3CCC4=CC(=O)CC[C@]4(C)[C@H]3CC[C@]12C` [testosterone 17β-N,N-dimethylglycinate]: the elimination half-life entry in series [3] was “about fifty-five”. Further, in series [3], the “serum levels compared with intravenous administration” value is “equal to intravenous administration”. The entries for the “time to peak plasma concentration” value in series [3] (25 mg dose) and in series [3] (50 mg dose) were “twelve” and “twenty”, respectively.
With `CCC(=O)O[C@H]1CC[C@H]2[C@@H]3CCC4=CC(=O)CC[C@]4(C)[C@H]3CC[C@]12C` [testosterone propionate], the “time of testosterone and free testosterone peak” value with female sexual response (single vaginal dose) was 5.5 h. Further, in the series on female sexual response, the sexual arousal result is “does not trigger sexual arousal”.
Turning to `CCCCCCCCCCC(=O)O[C@H]1CC[C@H]2[C@@H]3CCC4=CC(=O)CC[C@]4(C)[C@H]3CC[C@]12C` [testosterone undecanoate], the sexual arousal result with female sexual response is listed as “triggers sexual arousal”.
